Measurements reported in US12528812B2 (Genentech, Inc., priority 2020, dated 2026).
Read-outs that look alike come from different tables or passages of the source.

Assays:
[1] = target: T1, recombinant human JAK1 kinase domain protein (Residues 854-1154) (Homo sapiens, UniProt P23458); test: JAK1 biochemical assay (LabChip mobility shift, Ki); conditions: read-out: Biochem JAK1 Ki
T1 construct: human JAK1 kinase domain protein (Residues 854-1154); purchased Proteros Biostructures GmbH (Martinsried, Germany); host or cells: insect cells

[2] = system: IL-13-stimulated STAT6 phosphorylation in human lung bronchial epithelial BEAS-2B cell line; test: P-STAT6 BEAS-2B + IL-13 cell assay; format: cell-based; conditions: BEAS2B cells, IL13 stimulation, read-out: Cellular JAK1 PSTAT6 BEAS2B + IL13
Method in brief: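 BEAS-2B cells grown 48 h at 37 °C, pre-treated 1 h with compound (10-point 1:2 dilution curve), then stimulated 15 min with human recombinant IL-13 (250 ng/mL stock). Lysate P-STAT6 (Tyr641) read by MSD sandwich ELISA with total-STAT6 capture; IC50 from four-parameter logistic fit of control-normalised data.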

[3] = target: Recombinant human JAK2 kinase domain protein (Residues 812-1132) (Homo sapiens, UniProt O60674); test: JAK2 biochemical assay (LabChip mobility shift, Ki)
Chain of Recombinant human JAK2 kinase domain protein (Residues 812-1132) (O60674 812-1132): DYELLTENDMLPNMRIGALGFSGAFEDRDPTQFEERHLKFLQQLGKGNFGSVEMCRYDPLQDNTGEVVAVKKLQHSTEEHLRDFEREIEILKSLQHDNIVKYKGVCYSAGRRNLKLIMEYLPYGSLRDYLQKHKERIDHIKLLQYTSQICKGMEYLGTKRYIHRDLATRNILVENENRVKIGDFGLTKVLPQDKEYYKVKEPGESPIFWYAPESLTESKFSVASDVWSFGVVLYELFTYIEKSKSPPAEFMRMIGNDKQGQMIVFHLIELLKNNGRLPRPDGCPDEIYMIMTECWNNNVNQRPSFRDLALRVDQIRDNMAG
Description: The in vitro biochemical assays quantify JAK-catalyzed phosphorylation of a synthetic peptide, as detected using a LabChip® EZ Reader II microfluidic mobility shift instrument (PerkinElmer; Waltham, MA). […] Y-1B is fluorescently labeled on the N-terminus with 5-FAM (5-carboxyfluorescein) and contains a single tyrosine residue (Y) that can be phosphorylated by JAK activity. The substrate peptide stock is prepared in DMSO at 5 mM. […] In each titration experiment, test compound was tested in duplicate at each of the twelve concentrations. Blank reactions contained ATP, peptide, and DMSO, but no JAK or test compound, whereas uninhibited control reactions contained ATP, peptide, JAK, and DMSO, but no test compound.
Peptide plus ATP mixture (24 μL) was added to 1 μL of test compound in DMSO (or DMSO alone). The reactions were initiated by adding 25 μL of JAK enzyme to the inhibitor/peptide/ATP mixture before thoroughly mixing the resultant solution. Reactions were incubated at room temperature (22° C.-23° C.) in a final volume of 50 μL per well in 384-well plates. After a 30-minute incubation, the reactions were stopped by adding 25 μL of 150 mM ethylenediaminetetraacetic acid in 100 mM HEPES buffer (pH 7.2) containing 0.015% Brij 35 to each well.
In each reaction, the residual Y-1B substrate and the phospho-peptide product generated were separated using the EZ Reader II instrument. Electrophoretic separation of molecules of product from molecules of substrate was achieved using downstream and upstream voltages of −500 and −2600 V, respectively, at an operating pressure of −1.3 psi.
The extent (or percent) of conversion of substrate to product was calculated from the corresponding peak heights in the electropherogram using HTS Well Analyzer software, Version 5.2 (PerkinElmer), and the following equation (Equation 1): conversion=[P÷(S+P)]×100 Equation 1% where S and P represent the peak heights of the substrate and product, respectively. After any baseline signal from blank wells containing no JAK was subtracted from the signal of all test wells, the % conversion data were converted to fractional activity as shown in Equation 2, where vi and vo are the % conversion in the presence and absence of test compound, respectively.

T1 sequence (P23458 854-1154): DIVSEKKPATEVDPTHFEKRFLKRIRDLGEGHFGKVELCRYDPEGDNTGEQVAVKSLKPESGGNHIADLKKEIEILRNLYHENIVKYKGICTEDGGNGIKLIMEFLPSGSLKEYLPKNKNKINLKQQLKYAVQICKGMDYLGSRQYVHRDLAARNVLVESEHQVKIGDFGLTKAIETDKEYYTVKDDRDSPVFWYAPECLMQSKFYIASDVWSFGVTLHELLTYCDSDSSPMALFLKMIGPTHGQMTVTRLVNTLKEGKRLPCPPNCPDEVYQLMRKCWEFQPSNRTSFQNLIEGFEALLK

| Ki [1] | Ki ([3]; Biochem JAK2 Ki) | Ki ([3]; read-out: Biochem JAK2 Ki) | SMILES | IC50 ([2]; Homo sapiens, BEAS-2B) | IC50 [2] |
| --- | --- | --- | --- | --- | --- |
| 1.2 nM | 1.2 nM | – | CCn1cc(NC(=O)c2cnn3cccnc23)c(-c2cc(Oc3cnn(CC4(O)CN(C)C4)c3)ccc2OC(F)F)n1 [Example 208, N-[3-[2-(difluoromethoxy)-5-[1-[(3-hydroxy-1-methyl-azetidin-3-yl)methyl]pyrazol-4-yl]oxy-phenyl]-1-ethyl-pyrazol-4-yl]pyrazolo[1,5-a]pyrimidine-3-carboxamide] | 72 nM | – |
| 0.19 nM | 0.31 nM | – | Cn1cc(NC(=O)c2cnn3cccnc23)c(-c2cc(Oc3cc(Cl)cc(C4(O)CNC4)c3)ccc2OC(F)F)n1 [Example 99, N-[3-[5-[3-chloro-5-(3-hydroxyazetidin-3-yl)phenoxy]-2-(difluoromethoxy)phenyl]-1-methyl-pyrazol-4-yl]pyrazolo[1,5-a]pyrimidine-3-carboxamide] | 78 nM | – |
| 2.5 nM | 0.99 nM | – | Cn1cc(NC(=O)c2cnn3cccnc23)c(-c2cc(Oc3ccc(CN4CCCC[C@@H]4CO)cc3)ccc2OC(F)F)n1 (racemic) [Example 166, N-[3-[2-(difluoromethoxy)-5-[4-[[rac-(2R)-2-(hydroxymethyl)-1-piperidyl]methyl]phenoxy]phenyl]-1-methyl-pyrazol-4-yl]pyrazolo[1,5-a]pyrimidine-3-carboxamide] | 32 nM | – |
| 0.39 nM | 0.28 nM | – | NCc1cc(Oc2ccc(OC(F)F)c(-c3n[nH]cc3NC(=O)c3cnn4cccnc34)c2)ccc1F [Example 19, N-[3-[5-[3-(aminomethyl)-4-fluoro-phenoxy]-2-(difluoromethoxy)phenyl]-1H-pyrazol-4-yl]pyrazolo[1,5-a]pyrimidine-3-carboxamide] | 49 nM | – |
| 0.25 nM | 0.16 nM | – | Cn1cc(NC(=O)c2cnn3cccnc23)c(-c2cc(Oc3cnn(C4CCC4O)c3)ccc2OC(F)F)n1 (stereo not drawn) [Example 135, N-[3-[2-(difluoromethoxy)-5-[1-(2-hydroxycyc1obutyl)pyrazol-4-yl]oxy-phenyl]-1-methyl-pyrazol-4-yl]pyrazolo[1,5-a]pyrimidine-3-carboxamide] | – | 15 nM |
| 0.51 nM | 0.25 nM | – | CN1CCc2ccc(Oc3ccc(OC(F)F)c(-c4n[nH]cc4NC(=O)c4cnn5cccnc45)c3)cc2C1 [Example 36, N-[3-[2-(difluoromethoxy)-5-[(2-methyl-3,4-dihydro-1H-isoquinolin-7-yl)oxy]phenyl]-1H-pyrazol-4-yl]pyrazolo[1,5-a]pyrimidine-3-carboxamide] | 11 nM | – |
| 0.2 nM | 0.23 nM | – | Cc1cc(Oc2ccc(OC(F)F)c(-c3nn(C)cc3NC(=O)c3cnn4cccnc34)c2)cc(C2(O)CNC2)c1 [Example 101, N-[3-[2-(difluoromethoxy)-5-[3-(3-hydroxyazetidin-3-yl)-5-methyl-phenoxy]phenyl]-1-methyl-pyrazol-4-yl]pyrazolo[1,5-a]pyrimidine-3-carboxamide] | 180 nM | – |
| 0.46 nM | 0.23 nM | – | Cc1nn(C)cc1Oc1ccc(OC(F)F)c(-c2nn(C)cc2NC(=O)c2cnn3cccnc23)c1 [Example 153, N-[3-[2-(difluoromethoxy)-5-(1,3-dimethylpyrazol-4-yl)oxy-phenyl]-1-methyl-pyrazol-4-yl]pyrazolo[1,5-a]pyrimidine-3-carboxamide] | 27 nM | – |
| 0.27 nM | 0.26 nM | – | Cn1cc(NC(=O)c2cnn3cccnc23)c(-c2cc(Oc3cccc(C4(F)CNC4)c3)ccc2OC(F)F)n1 [Example 70, N-[3-[2-(difluoromethoxy)-5-[3-(3-fluoroazetidin-3-yl)phenoxy]phenyl]-1-methyl-pyrazol-4-yl]pyrazolo[1,5-a]pyrimidine-3-carboxamide] | 23 nM | – |
| 1.5 nM | 1.6 nM | – | Cn1cc(NC(=O)c2cnn3cccnc23)c(-c2cc(Oc3cccc(CN4CCOCC4)c3)ccc2OC(F)F)n1 [Example 46, N-[3-[2-(difluoromethoxy)-5-[3-(morpholinomethyl)phenoxy]phenyl]-1-methyl-pyrazol-4-yl]pyrazolo[1,5-a]pyrimidine-3-carboxamide] | 67 nM | – |
| 1.5 nM | 1.9 nM | – | NCc1ccccc1Oc1ccc(OC(F)F)c(-c2n[nH]cc2NC(=O)c2cnn3cccnc23)c1 [Example 7, N-[3-[5-[2-(aminomethyl)phenoxy]-2-(difluoromethoxy)phenyl]-1H-pyrazol-4-yl]pyrazolo[1,5-a]pyrimidine-3-carboxamide] | 360 nM | – |
| 0.19 nM | 0.21 nM | – | Cn1cc(NC(=O)c2cnn3cccnc23)c(-c2cc(Oc3cc(CN)ccc3F)ccc2OC(F)F)n1 [Example 28, N-[3-[5-[5-(aminomethyl)-2-fluoro-phenoxy]-2-(difluoromethoxy)phenyl]-1-methyl-pyrazol-4-yl]pyrazolo[1,5-a]pyrimidine-3-carboxamide] | 19 nM | – |
| 0.39 nM | 0.21 nM | – | Cn1cc(NC(=O)c2cnn3cccnc23)c(-c2cc(Oc3cnn(CC(C)(C)O)c3)ccc2OC(F)F)n1 [Example 124, N-[3-[2-(difluoromethoxy)-5-[1-(2-hydroxy-2-methyl-propyl)pyrazol-4-yl]oxy-phenyl]-1-methyl-pyrazol-4-yl]pyrazolo[1,5-a]pyrimidine-3-carboxamide] | 29 nM | – |
| 0.29 nM | 0.2 nM | – | Cc1n[nH]cc1Oc1ccc(OC(F)F)c(-c2nn(C)cc2NC(=O)c2cnn3cccnc23)c1 [Example 151, N-[3-[2-(difluoromethoxy)-5-[(3-methyl-1H-pyrazol-4-yl)oxy]phenyl]-1-methy1-pyrazol-4-yl]pyrazolo[1,5-a]pyrimidine-3-carboxamide] | 19 nM | – |
| 3.3 nM | 0.89 nM | – | NCc1ccc(Oc2ccc(OC(F)F)c(-c3n[nH]cc3NC(=O)c3cnn4cccnc34)c2)cc1 [Example 3, N-[3-[5-[4-(aminomethyl)phenoxy]-2-(difluoromethoxy)phenyl]-1H-pyrazol-4-yl]pyrazolo[1,5-a]pyrimidine-3-carboxamide] | 15 nM | – |
| 0.21 nM | 0.43 nM | – | Cn1cc(NC(=O)c2cnn3cccnc23)c(-c2cc(Oc3cccc(CN)c3)ccc2OC(F)F)n1 [Example 13, N-[3-[5-[3-(aminomethyl)phenoxy]-2-(difluoromethoxy)phenyl]-1-methyl-pyrazol-4-yl]pyrazolo[1,5-a]pyrimidine-3-carboxamide] | 13 nM | – |
| 0.21 nM | 0.22 nM | – | Cn1cc(NC(=O)c2cnn3cccnc23)c(-c2cc(Oc3ccc4c(c3)CNCC4)ccc2OC(F)F)n1 [Example 150, N-[3-[2-(difluoromethoxy)-5-(1,2,3,4-tetrahydroisoquinolin-7-yloxy)phenyl]-1-methyl-pyrazol-4-yl]pyrazolo[1,5-a]pyrimidine-3-carboxamide] | 16 nM | – |
| 1.1 nM | 0.57 nM | – | Cn1cc(NC(=O)c2cnn3cccnc23)c(-c2cc(Oc3ccccn3)ccc2OC(F)F)n1 [Example 175, N-[3-[2-(difluoromethoxy)-5-(2-pyridyloxy)phenyl]-1-methyl-pyrazol-4-yl]pyrazolo[1,5-a]pyrimidine-3-carboxamide] | 68 nM | – |
| 1.6 nM | 1.5 nM | – | CN1CC(Cn2cc(Oc3ccc(OC(F)F)c(-c4nn(C)cc4NC(=O)c4cnn5cccnc45)c3)cn2)C1 [Example 127, N-[3-[2-(difluoromethoxy)-5-[1-[(1-methylazetidin-3-yl)methyl]pyrazol-4-yl]oxy-phenyl]-1-methyl-pyrazol-4-yl]pyrazolo[1,5-a]pyrimidine-3-carboxamide] | 46 nM | – |
| 0.43 nM | 0.5 nM | – | Cn1cc(NC(=O)c2cnn3cccnc23)c(-c2cc(Oc3cnn(C4CC(O)C4)c3)ccc2OC(F)F)n1 (stereo not drawn) [Example 118, N-[3-[2-(difluoromethoxy)-5-[1-(3-hydroxycyclobutyl)pyrazol-4-yl]oxy-phenyl]-1-methyl-pyrazol-4-yl]pyrazolo[1,5-a]pyrimidine-3-carboxamide] | 48 nM | – |
| 0.55 nM | – | 0.4 nM | CN1CC(O)(c2cccc(Oc3ccc(OC(F)F)c(-c4n[nH]cc4NC(=O)c4cnn5cccnc45)c3)c2)C1 [Example 138, N-[3-[2-(difluoromethoxy)-5-[3-(3-hydroxy-l-methyl-azetidin-3-yl)phenoxy]phenyl]-1H-pyrazol-4-yl]pyrazolo[1,5-a]pyrimidine-3-carboxamide] | – | 150 nM |
| 2 nM | 1.5 nM | – | Cn1cc(NC(=O)c2cnn3cccnc23)c(-c2cc(Oc3cnn(C4CCNC4)c3)ccc2OC(F)F)n1 (racemic) [Example 139, N-[3-[2-(difluoromethoxy)-5-[1-[rac-(3R)-pyrrolidin-3-yl]pyrazol-4-yl]oxy-phenyl]-1-methyl-pyrazol-4-yl]pyrazolo[1,5-a]pyrimidine-3-carboxamide] | 70 nM | – |

| SMILES | Ki [1] | Ki ([3]; Biochem JAK2 Ki) | Ki ([3]; read-out: Biochem JAK2 Ki) | IC50 ([2]; Homo sapiens, BEAS-2B) | IC50 [2] |
| --- | --- | --- | --- | --- | --- |
| Cn1cc(NC(=O)c2cnn3cccnc23)c(-c2cc(Oc3cnn(CC4(O)CN5CCC4CC5)c3)ccc2OC(F)F)n1 (stereo not drawn) [Example 199, N-[3-[2-(difluoromethoxy)-5-[1-[(3-hydroxyquinuclidin-3-yl)methyl]pyrazol-4-yl]oxy-phenyl]-1-methyl-pyrazol-4-yl]pyrazolo[1,5-a]pyrimidine-3-carboxamide] | 0.88 nM | 0.43 nM | – | – | 130 nM |
